Measured values reported in ChEMBL document CHEMBL1141398, “Metastin (KiSS-1) mimetics identified from peptide structure-activity relationship-derived pharmacophores and directed small molecule database screening” (J Med Chem, 2007).
Activity calls are given as the source filed them. The calls are words filed in the database; no cut-off is given here.

Molecular target: KiSS-1 receptor (Homo sapiens, UniProt Q969F8)
Test: Activity at metastin receptor expressed in HEK293 cells by measuring calcium release at 100 uM
Type: functional, cell-based

KiSS-1 receptor, sequence (Q969F8 whole entry): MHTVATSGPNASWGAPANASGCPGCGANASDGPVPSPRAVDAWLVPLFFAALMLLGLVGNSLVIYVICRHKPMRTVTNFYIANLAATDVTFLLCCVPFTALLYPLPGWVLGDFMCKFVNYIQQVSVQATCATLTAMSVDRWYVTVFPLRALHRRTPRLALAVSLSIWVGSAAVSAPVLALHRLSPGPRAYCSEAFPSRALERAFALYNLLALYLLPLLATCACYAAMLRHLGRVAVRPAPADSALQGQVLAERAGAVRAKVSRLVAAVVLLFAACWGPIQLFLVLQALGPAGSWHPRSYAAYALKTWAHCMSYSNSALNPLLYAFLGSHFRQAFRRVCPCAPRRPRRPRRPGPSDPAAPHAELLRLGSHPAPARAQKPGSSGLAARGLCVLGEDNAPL

Activity: Active
SMILES: CC(C)(C)CC(C)(C)c1ccc(OCCOCC[N+](C)(C)Cc2ccccc2)cc1 [BENZETHONIUM CHLORIDE]
